This note sets out measurements from patent publication US10562882B2, “Piperidine derivatives for use in the treatment or prevention of psychiatric and neurological conditions” (Takeda Pharmaceutical Company Limited, priority 2013, dated 2020).

The structures appear in SMILES notation. Counter-ions that a name gives are not always drawn.

Chain of human PKR1 receptors (Q8TCW9 whole entry): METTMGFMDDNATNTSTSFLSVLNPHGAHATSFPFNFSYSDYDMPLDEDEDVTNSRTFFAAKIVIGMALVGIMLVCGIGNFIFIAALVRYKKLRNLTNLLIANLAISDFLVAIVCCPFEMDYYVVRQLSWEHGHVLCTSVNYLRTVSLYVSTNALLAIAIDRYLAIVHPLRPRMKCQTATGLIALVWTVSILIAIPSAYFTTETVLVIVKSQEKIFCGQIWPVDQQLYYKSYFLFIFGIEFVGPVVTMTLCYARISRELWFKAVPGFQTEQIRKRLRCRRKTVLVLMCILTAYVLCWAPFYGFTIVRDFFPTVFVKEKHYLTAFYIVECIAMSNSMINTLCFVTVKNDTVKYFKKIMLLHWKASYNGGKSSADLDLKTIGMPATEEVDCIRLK

The target in the assay is human PKR1 receptors (Homo sapiens (Human), UniProt Q8TCW9). The assay is described as follows: PKR1 antagonist intracellular calcium (FLIPR) assay, block of PK1-mediated calcium release. The following applies: RBL2H3 cells expressing human PKR1; PK1 at EC80; minimum of two independent assays. The class given is cell-based. The procedure:
Prokineticin receptor 1 (PKR1) antagonists may be functionally assessed by measurement of change in intracellular calcium levels induced by Gq mediated increase in inositol triphosphate (IP3) levels. The ability of a compound to block the intracellular release of calcium mediated by PK1 in RBL2H3 cells expressing human PKR1 receptors is determined as a measure of the compound's antagonist activity in vitro.
Approximately 10,000 cells per assay well are seeded in normal culture medium in a 384 well plate (Corning). Twenty-four hours after seeding, the cells are loaded with a calcium sensitive fluorescent dye by replacing the culture medium with assay buffer (1× Hanks buffered saline, 25 mM HEPES, 0.1% w/v fatty acid free BSA (bovine serum albumin), pH 7.4) containing 1 mM probenecid and 1× Calcium 5 Reagent (Molecular Devices). Cells are incubated at 37° C. for 1 hour to allow for dye uptake.
To test for antagonist activity, test compounds at a final concentration range between 0.32 nM-10 μM (diluted in assay buffer) are added to duplicate assay wells and allowed to incubate for 10 minutes prior to stimulation with PK1. After incubation with test compounds the assay plate is placed in a FLIPR Tetra (Molecular Devices) and PK1 (diluted in assay buffer) is added at the determined EC80 concentration (final). Ligand-dependent changes in intracellular calcium levels are determined by measuring changes in fluorescence of the dye at […] following excitation at 485 nm. […] A minimum of two IC50 values determined from independent assays are generated for each compound.
Broadly, the IC50 is the concentration needed to halve the response being measured. `Cc1c(C2CCCN(C(=O)c3cnnc(N(C)C)c3)C2)[nH]c2ccccc12` (stereo not drawn) [Example 24, N,N-Dimethyl-5-[3-(3-methyl-1H-indol-2-yl)piperidine-1-carbonyl]pyridazin-3-amine]: the IC50 was 7.41 µM.

Turning to `CCn1cc(C(=O)N2CCCC(OC)(c3ncc(Cl)cc3C)C2)cn1` (stereo not drawn) [Example 40, 5-Chloro-2-[1-(1-ethyl-1H-pyrazole-4-carbonyl)-3-methoxypiperidin-3-yl]-3-methylpyridine], the IC50 came to 3.41 µM.

As to `CN(C)c1cc(C(=O)N2CCCC(c3nc4ccccc4n3C)C2)ccn1` (stereo not drawn) [Example 4, N,N-Dimethyl-4-[3-(1-methyl-1H-1,3-benzodiazol-2-yl)piperidine-1-carbonyl]pyridin-2-amine], the IC50 amounted to 1.22 µM.

`CCn1c(C2CCCN(C(=O)c3cnnc(NC)c3)C2)cc2cc(Cl)ccc21` (stereo not drawn) [Example 20, 5-[3-(5-Chloro-1-ethyl-1H-indol-2-yl)piperidine-1-carbonyl]-N-methylpyridazin-3-amine]: the IC50 turned out to be 1.25 µM.

As for `Cc1cc(Cl)cnc1C1(F)CCCN(C(=O)c2cnnc(N(C)C)c2)C1` (stereo not drawn) [Example 39, 5-[3-(5-Chloro-3-methylpyridin-2-yl)-3-fluoropiperidine-1-carbonyl]-N,N-dimethylpyridazin-3-amine], the IC50 was determined as 0.4 µM.

As to `COC1(c2ncc(Cl)cc2C)CCCN(C(=O)c2cn(C)nc2N)C1` (stereo not drawn) [Example 42, 4-[3-(5-Chloro-3-methylpyridin-2-yl)-3-methoxypiperidine-1-carbonyl]-1-methyl-1H-pyrazol-3-amine], the IC50 is more than 9 µM.

For the compound `CNc1cc(C(=O)N2CCCC(OC)(c3ncc(Cl)cc3C)C2)cnn1` (stereo not drawn) [Example 36, 5-[3-(5-Chloro-3-methylpyridin-2-yl)-3-methoxypiperidine-1-carbonyl]-N-methylpyridazin-3-amine], the IC50 was 1.49 µM.

For the compound `CC(C)n1c(C2CCCN(C(=O)c3ccnc(N(C)C)c3)C2)nc2ccccc21` (racemic) [Example 1, N,N-Dimethyl-4-{3-[1-(propan-2-yl)-1H-1,3-benzodiazol-2-yl]piperidin-1-carbonyl}pyridin-2-amine (racemic)], the IC50 was determined as 0.32 µM.

For the compound `CCn1cc(C(=O)N2CCCC(c3cc4ccccc4n3C(C)C)C2)cn1` (stereo not drawn) [Example 15, 2-{1-[(1-Ethyl-1H-pyrazol-4-yl)carbonyl]piperidin-3-yl}-1-(propan-2-yl)-1H-indole], the IC50 was 0.33 µM.

For the compound `CCn1c(C2CCCN(C(=O)c3cnnc(NC)c3)C2)c(C)c2ccccc21` (stereo not drawn) [Example 18, 5-[3-(1-Ethyl-3-methyl-1H-indol-2-yl)piperidine-1-carbonyl]-N-methylpyridazin-3-amine], the IC50 was found to be 2.17 µM.

`CNc1cc(C(=O)N2CCCC(OC)(c3ncc(Cl)cc3C(F)(F)F)C2)ccn1` (stereo not drawn) [Example 29, 4-{3-[5-Chloro-3-(trifluoromethyl)pyridin-2-yl]-3-methoxypiperidine-1-carbonyl}-N-methylpyridin-2-amine formate]: the IC50 was 0.48 µM.

Take `CNc1cc(C(=O)N2CCCC(OC)(c3ncc(Cl)cc3C(F)(F)F)C2)cnn1` (stereo not drawn) [Example 30, 5-({3-[5-Chloro-3-(trifluoromethyl)pyridin-2-yl]-3-methoxypiperidin-1-yl}carbonyl)-N-methylpyridazin-3-amine]: the IC50 came out at 2.08 µM.

Regarding `CCn1c(C2CCCN(C(=O)c3cnnc(N(C)C)c3)C2)cc2cc(C)ccc21` (stereo not drawn) [Example 21, 5-[3-(1-Ethyl-5-methyl-1H-indol-2-yl)piperidine-1-carbonyl]-N,N-dimethylpyridazin-3-amine], the IC50 worked out at 5.34 µM.

Take `COC1(c2ncc(Cl)cc2C)CCCN(C(=O)c2cnnc(N(C)C)c2)C1` (stereo not drawn) [Example 37, 5-[3-(5-Chloro-3-methylpyridin-2-yl)-3-methoxypiperidine-1-carbonyl]-N,N-dimethylpyridazin-3-amine]: the IC50 amounted to 0.92 µM.

`CCn1c(C2CCCN(C(=O)c3cnnc(NC)c3)C2)cc2cc(C)ccc21` (stereo not drawn) [Example 19, 5-[3-(1-Ethyl-5-methyl-1H-indol-2-yl)piperidine-1-carbonyl]-N-methylpyridazin-3-amine]: the IC50 is 2.69 µM.
